Patent publication US11738095B2, “Cyanine-containing compounds for cancer imaging and treatment” (Emory University, priority 2007, dated 2023)
“Also recorded” adds a separate entry of the source. Like-named read-outs stand apart in the source and are kept apart here.

Columns and labels:
[1] = test system: orthotopic prostate ARCaPM tumor; experiment: NIR imaging to assess pharmacokinetics of IR783 in vivo (FIG. 16A, 19); parameters: species or system mouse
[2] = Procedure: Mice were injected with 20 μg/Kg of IR783 and IR780 (which was 100× of the imaging dose which was 0.2 μg/Kg) and results were compared for a 28 day period. […] Zero grams means the mouse died. ICG is a FDA approved dye used for several diagnostic purposes. ICG is considered to be nontoxic. ICG is used here as a measure of the toxicity of the tested compounds.
Toxicity test of dye based on body weight gained during the treatment period from 0 to 14 days.

NPF = experiment: uptake of IR783 in cell lines: prostate fibroblasts; format: cell-based, human
Source text: (§1) The uptake of IR783 was studied and confirmed in a variety of human cell lines as shown below: […]

HaCaT = experiment: uptake of IR783 in cell lines: skin; format: cell-based, human
Source text: as §1

BMC = experiment: uptake of IR783 in cell lines: bone marrow stroma; format: cell-based, human
Source text: as §1

RAW = experiment: uptake of IR783 in cell lines: mouse macrophages; format: cell-based
Source text: as §1

[3] = test system: PDAC-2.3, PDAC-3.3, BTC-3, BTC-5; experiment: uptake of IR783 in cell lines: pancreatic; format: cell-based, human
Source text: as §1

[4] = test system: ARCaPM prostate cancer cells and P69 normal prostate epithelial cells; experiment: confocal fluorescence imaging of IR783 uptake, cancer versus normal cells (FIG. 14); format: cell-based, human
Procedure: After being washed in PBS to remove free dyes, the cells were subject to confocal fluorescence imaging. DAPI, added together with IR783, was used as a positive control for the staining of the cell nucleus. P69, representing normal human prostate epithelial cells, was stained in parallel. Images were acquired by Zeiss LSM 510 META confocal microscopy. […] 100 μM BSP was used to pre-incubate with ARCaPM, before 50 μM IR783 was added.

[5] = test system: spontaneous prostate tumor in a TRAMP mouse; experiment: imaging of spontaneous TRAMP prostate tumor, fresh and after fixation (FIG. 16B, C); format: in vivo
Procedure: NIR imaging studies were performed to assess pharmacokinetics of the IR783 in vivo. […] This mouse was injected i.p with 0.2 μg/kg IR783 at 0 hrs. […] The dye retention in formalin fixed tissues can be as long as several weeks (data not shown).

ARCaPM and PC3 tumors = experiment: IR783 imaging of pre-established tumors in live mice, 5 nmol tail vein (FIG. 18); format: in vivo, mouse
Source text: Intratibial ARCaPM tumors were also established in live mice prior to administration of IR783. 5 nmol of IR783 was given through the tail vein and imaged using a Kodak multimodal imaging system.
Subcutaneous ARCaPM and PC3 (four tumors with different sizes) tumors were established in live mice prior to the administration of IR-783. 5 nmol of IR783 were given to mice through tail vein and imaged using Kodak multimodal-imaging system.

MCF-7 = experiment: uptake of IR783 in cell lines: breast; format: cell-based, human
Source text: as §1

VEC = experiment: uptake of IR783 in cell lines: vascular endothelia; format: cell-based, human
Source text: as §1

C4-2 tumors = experiment: effect of MHI-25 on pre-established C4-2 tumors in mice (FIG. 9 bottom); format: in vivo, mouse; conditions: 100 nmols, Day 5 after administration
K562 = experiment: uptake of IR783 in cell lines: leukemia; format: cell-based, human
Source text: as §1

[6] = test system: subcutaneous ARCaPM tumor, intratibial C4-2 tumor; experiment: IR783 imaging of human prostate cancer xenografts in nude mice (FIG. 15); format: in vivo, mouse
Procedure: The mice were injected i.p with IR783 at 0.2 μg/kg. Imaging was performed 24 hours later with the Kodak multimodal-imaging system. Histopathological analysis (H/E) confirmed the presence of tumors. […] Histopathology confirmed the necrotic status of the tumors.

SN12C, ACHN = experiment: uptake of IR783 in cell lines: renal; format: cell-based, human
Source text: as §1

H358 = experiment: uptake of IR783 in cell lines: lung; format: cell-based, human
Source text: as §1

[7] = test system: ARCaPM, LNCaP, ARCaPE, C4-2, PC-3; experiment: uptake of IR783 in cell lines: prostate; format: cell-based, human
Source text: as §1

RCC = experiment: uptake of IR783 in cell lines: kidney; format: cell-based, human
Source text: as §1

RT-4, T24, 253J, TCC = experiment: uptake of IR783 in cell lines: bladder; format: cell-based, human
Source text: as §1

For CC1(C)C(=CC=C2CCCC(C=CC3=[N+](CCCCS(=O)(=O)[O-])c4ccccc4C3(C)C)=C2Cl)N(CCCCS(=O)(=O)[O-])c2ccccc21.[Na+] [IR783], the non-specific imaging ([1]; 0.2 μg/kg i.p) was “non-specific imaging can be seen in the first 24 hrs, predominantly in the liver”, the retention in tumors ([1]; 0.2 μg/kg i.p, 3.4 cm^3 orthotopic ARCaPM tumor) was “more than 4 days” and the initial distribution ([1]; 0.2 μg/kg i.v or i.p) was “initially accumulated in liver, lung and spleen”. The “time at which dye appeared in tumor” value ([1]; 0.2 μg/kg i.v or i.p) was 24 h, the “time after which tumors and metastases can be readily identified” value ([1]; ARCaP orthotopic tumors, FIG. 19) was 24 to 48 h and the “signal in mice without tumors” value ([1]; data not shown) was “background activity”. The “accumulation in gall bladder or urinary bladder” value ([1]; mouse, in vivo) was “not detected”, the “time of accumulation in tumor and metastases” value ([1]; orthotopic xenograft ARCaPm tumor, FIG. 16 legend) was 24 to 96 h and the toxicity ([2]; 20 μg/Kg (100× of the imaging dose), 28 day period) was “not toxic”. The body weight ([2]; dose 1X (imaging dose 0.2 μg/Kg), 0 day) was 20.29 g, the body weight ([2]; dose 1X, 1 day) was 20.20 g and the body weight ([2]; dose 1X, 2 day) was 20.23 g. For the same molecule, the body weight ([2]; dose 1X, 3 day) was 20.32 g, the body weight ([2]; dose 1X, 4 day) was 20.34 g and the body weight ([2]; dose 1X, 5 day) was 21.00 g. The body weight ([2]; dose 1X, 6 day) was 21.87 g, the body weight ([2]; dose 1X, 7 day) was 22.32 g and the body weight ([2]; dose 1X, 14 day) was 23.91 g. It also gave a body weight ([2]; dose 1X, 28 day) of 24.86 g, a body weight ([2]; dose 10X, 0 day) of 20.57 g and a body weight ([2]; dose 10X, 1 day) of 20.61 g. For the same molecule, the body weight ([2]; dose 10X, 2 day) was 20.59 g, the body weight ([2]; dose 10X, 3 day) was 20.98 g and the body weight ([2]; dose 10X, 4 day) was 21.02 g. For the same molecule, the body weight ([2]; dose 10X, 5 day) was 21.34 g, the body weight ([2]; dose 10X, 6 day) was 21.76 g and the body weight ([2]; dose 10X, 7 day) was 22.54 g. It also gave a body weight ([2]; dose 10X, 14 day) of 24.01 g, a body weight ([2]; dose 10X, 28 day) of 24.87 g and a body weight ([2]; dose 100X (20 μg/Kg), 0 day) of 19.85 g. It also gave a body weight ([2]; dose 100X, 1 day, zero grams means the mouse died) of 19.74 g, a body weight ([2]; dose 100X, 2 day, zero grams means the mouse died) of 20.01 g and a body weight ([2]; dose 100X, 3 day, zero grams means the mouse died) of 20.39 g. For the same molecule, the body weight ([2]; dose 100X, 4 day, zero grams means the mouse died) was 20.43 g, the body weight ([2]; dose 100X, 5 day, zero grams means the mouse died) was 21.01 g and the body weight ([2]; dose 100X, 6 day, zero grams means the mouse died) was 21.23 g. It also gave a body weight ([2]; dose 100X, 7 day, zero grams means the mouse died) of 22.00 g, a body weight ([2]; dose 100X, 14 day, zero grams means the mouse died) of 23.76 g and a body weight ([2]; dose 100X, 28 day, zero grams means the mouse died) of 24.61 g. The Uptake (NPF) was “Very low”, the Uptake (HaCaT) was “Very low” and the Uptake (BMC) was “Very low”. For the same molecule, the Uptake (RAW) was “Very low”, the Uptake [3] was “Strong” and the “uptake by cancer cells at 0° C.” value ([4]; 0° C., data not shown) was “no uptake”. For the same molecule, the “uptake, ARCaPM compared with P69” value ([4]; 50 μM, 37° C., 30 min) was “only in the cancer cells”, the “effect of BSP on uptake by ARCaPM cells” value ([4]; 100 μM BSP pre-incubation, 50 μM IR783) was “inhibited by BSP; also recorded: completely abolished” and the “time dependence of uptake” value ([4]; ARCaPM, FIG. 14) was “time-dependent fashion”. For the same molecule, the “dose dependence of uptake” value ([4]; ARCaPM, data not shown) was “dose-dependent fashion”, the “imaging of spontaneous prostate tumor” value ([5]; 24 hours after administration) was “could be imaged” and the “dye retention in formalin fixed tissues” value ([5]; data not shown) was “several weeks”. For the same molecule, the “tolerance of dye accumulation in tumors to fixation” value ([5]; mouse, in vivo) was “can tolerate fixation with both paraformaldehyde and glutaraldehyde”, the tumor images (ARCaPM and PC3 tumors; intratibial ARCaPM tumors, data not shown) was “Clear tumor images were detected” and the tumor images (ARCaPM and PC3 tumors; subcutaneous ARCaPM and PC3 tumors) was “clear tumor images can be detected”. The Uptake (MCF-7) was “Strong”, the Uptake (VEC) was “Very low” and the “effect on pre-established tumors” value (C4-2 tumors) was “induced marked cell death, with tumors almost eliminated at Day 5”. For the same molecule, the Uptake (K562) was “Strong”, the “dye in normal organs removed from hosts” value ([6]; fluorescence imaging of all organs, data not shown) was “lack of uptake of the dye in normal organs” and the “dye in metabolically active C4-2 tumors in mouse tibia” value ([6]; mouse, in vivo) was “retained the dye”. The “dye retention in necrotic tumors on the contralateral side” value ([6]; mouse, in vivo) was “did not”, the “smallest tumor size detected” value ([6]; orthotopic or bone metastatic lesions, data not shown) was about 2 mm^3 and the “uptake by xenografts and metastatic bone lesions” value ([6]; subcutaneous and intra-tibial sites of nude mice, 0.2 μg/kg i.p, 24 hours) was “preferentially taken up”. The Uptake (SN12C, ACHN) was “Strong”, the Uptake (H358) was “Strong” and the Uptake [7] was “Strong”. The Uptake (RCC) was “Strong” and the Uptake (RT-4, T24, 253J, TCC) was “Strong”.
